# In the SangsterLogP compilation:
# Test: method code SF-AS, from DOI: 10.1021/acs.jmedchem.6b01691, PMID: 28051859
row,logP,Compound
1,2.43,COc1cccc(F)c1
2,2.87,COc1ccc(C(F)(F)F)cc1
3,3.24,FC(F)Sc1ccc(Cl)cc1
4,3.01,CSc1ccc(Cl)cc1
5,2.35,COc1ccc(OC(F)F)cc1
6,3.11,COc1ccc(SC(F)F)cc1
7,3.01,CSc1ccc(C)cc1
8,2.69,FC(F)Oc1cccc(C(F)(F)F)c1
9,2.54,O=[N+]([O-])c1ccc(SC(F)F)cc1
10,2.76,FC(F)Oc1ccc(C(F)(F)F)cc1
11,2.69,COc1ccc(C(=O)c2ccccc2)cc1
12,3.41,Cc1ccc(SC(F)F)cc1
13,2.79,COc1cccc(C(F)(F)F)c1
14,2.89,FC(F)Sc1ccccc1
15,2.56,COc1ccc(C)cc1
16,2.92,Fc1ccc(SC(F)F)cc1
17,2.78,CSc1ccc(Br)cc1
18,2.6,CSc1ccccc1
19,2.47,Fc1ccc(OC(F)F)cc1
20,2.96,FC(F)Sc1ccc(Br)cc1
21,2.87,Cc1cccc(OC(F)F)c1
22,2.66,COc1ccc(SC)cc1
23,1.98,O=[N+]([O-])c1ccc(OC(F)F)cc1
24,2.77,CSc1ccc(F)cc1
25,2.88,Cc1ccc(OC(F)F)cc1
26,2.59,Fc1cccc(OC(F)F)c1
27,2.42,CC(=O)Nc1ccc(SC(F)F)cc1
28,2.14,COc1ccc(F)cc1
29,2.64,CSc1ccc([N+](=O)[O-])cc1
